Consider 1 compound from publication PMC8366453, “Efficacy of RyR2 inhibitor EL20 in induced pluripotent stem cell‐derived cardiomyocytes from a patient with catecholaminergic polymorphic ventricular tachycardia” (Journal of Cellular and Molecular Medicine, 2021).

This assay concerns the target cardiac ryanodine receptor type‐2 (RyR2) (Homo sapiens, UniProt Q92736, R176Q). The assay is described as follows: Confocal Ca2+ spark frequency dose-response in paced CPVT patient iPSC-derived cardiomyocytes (heterozygous R176Q). It is filed as cell-based.

Chain of cardiac ryanodine receptor type‐2 (RyR2) (Q92736 whole entry R176Q): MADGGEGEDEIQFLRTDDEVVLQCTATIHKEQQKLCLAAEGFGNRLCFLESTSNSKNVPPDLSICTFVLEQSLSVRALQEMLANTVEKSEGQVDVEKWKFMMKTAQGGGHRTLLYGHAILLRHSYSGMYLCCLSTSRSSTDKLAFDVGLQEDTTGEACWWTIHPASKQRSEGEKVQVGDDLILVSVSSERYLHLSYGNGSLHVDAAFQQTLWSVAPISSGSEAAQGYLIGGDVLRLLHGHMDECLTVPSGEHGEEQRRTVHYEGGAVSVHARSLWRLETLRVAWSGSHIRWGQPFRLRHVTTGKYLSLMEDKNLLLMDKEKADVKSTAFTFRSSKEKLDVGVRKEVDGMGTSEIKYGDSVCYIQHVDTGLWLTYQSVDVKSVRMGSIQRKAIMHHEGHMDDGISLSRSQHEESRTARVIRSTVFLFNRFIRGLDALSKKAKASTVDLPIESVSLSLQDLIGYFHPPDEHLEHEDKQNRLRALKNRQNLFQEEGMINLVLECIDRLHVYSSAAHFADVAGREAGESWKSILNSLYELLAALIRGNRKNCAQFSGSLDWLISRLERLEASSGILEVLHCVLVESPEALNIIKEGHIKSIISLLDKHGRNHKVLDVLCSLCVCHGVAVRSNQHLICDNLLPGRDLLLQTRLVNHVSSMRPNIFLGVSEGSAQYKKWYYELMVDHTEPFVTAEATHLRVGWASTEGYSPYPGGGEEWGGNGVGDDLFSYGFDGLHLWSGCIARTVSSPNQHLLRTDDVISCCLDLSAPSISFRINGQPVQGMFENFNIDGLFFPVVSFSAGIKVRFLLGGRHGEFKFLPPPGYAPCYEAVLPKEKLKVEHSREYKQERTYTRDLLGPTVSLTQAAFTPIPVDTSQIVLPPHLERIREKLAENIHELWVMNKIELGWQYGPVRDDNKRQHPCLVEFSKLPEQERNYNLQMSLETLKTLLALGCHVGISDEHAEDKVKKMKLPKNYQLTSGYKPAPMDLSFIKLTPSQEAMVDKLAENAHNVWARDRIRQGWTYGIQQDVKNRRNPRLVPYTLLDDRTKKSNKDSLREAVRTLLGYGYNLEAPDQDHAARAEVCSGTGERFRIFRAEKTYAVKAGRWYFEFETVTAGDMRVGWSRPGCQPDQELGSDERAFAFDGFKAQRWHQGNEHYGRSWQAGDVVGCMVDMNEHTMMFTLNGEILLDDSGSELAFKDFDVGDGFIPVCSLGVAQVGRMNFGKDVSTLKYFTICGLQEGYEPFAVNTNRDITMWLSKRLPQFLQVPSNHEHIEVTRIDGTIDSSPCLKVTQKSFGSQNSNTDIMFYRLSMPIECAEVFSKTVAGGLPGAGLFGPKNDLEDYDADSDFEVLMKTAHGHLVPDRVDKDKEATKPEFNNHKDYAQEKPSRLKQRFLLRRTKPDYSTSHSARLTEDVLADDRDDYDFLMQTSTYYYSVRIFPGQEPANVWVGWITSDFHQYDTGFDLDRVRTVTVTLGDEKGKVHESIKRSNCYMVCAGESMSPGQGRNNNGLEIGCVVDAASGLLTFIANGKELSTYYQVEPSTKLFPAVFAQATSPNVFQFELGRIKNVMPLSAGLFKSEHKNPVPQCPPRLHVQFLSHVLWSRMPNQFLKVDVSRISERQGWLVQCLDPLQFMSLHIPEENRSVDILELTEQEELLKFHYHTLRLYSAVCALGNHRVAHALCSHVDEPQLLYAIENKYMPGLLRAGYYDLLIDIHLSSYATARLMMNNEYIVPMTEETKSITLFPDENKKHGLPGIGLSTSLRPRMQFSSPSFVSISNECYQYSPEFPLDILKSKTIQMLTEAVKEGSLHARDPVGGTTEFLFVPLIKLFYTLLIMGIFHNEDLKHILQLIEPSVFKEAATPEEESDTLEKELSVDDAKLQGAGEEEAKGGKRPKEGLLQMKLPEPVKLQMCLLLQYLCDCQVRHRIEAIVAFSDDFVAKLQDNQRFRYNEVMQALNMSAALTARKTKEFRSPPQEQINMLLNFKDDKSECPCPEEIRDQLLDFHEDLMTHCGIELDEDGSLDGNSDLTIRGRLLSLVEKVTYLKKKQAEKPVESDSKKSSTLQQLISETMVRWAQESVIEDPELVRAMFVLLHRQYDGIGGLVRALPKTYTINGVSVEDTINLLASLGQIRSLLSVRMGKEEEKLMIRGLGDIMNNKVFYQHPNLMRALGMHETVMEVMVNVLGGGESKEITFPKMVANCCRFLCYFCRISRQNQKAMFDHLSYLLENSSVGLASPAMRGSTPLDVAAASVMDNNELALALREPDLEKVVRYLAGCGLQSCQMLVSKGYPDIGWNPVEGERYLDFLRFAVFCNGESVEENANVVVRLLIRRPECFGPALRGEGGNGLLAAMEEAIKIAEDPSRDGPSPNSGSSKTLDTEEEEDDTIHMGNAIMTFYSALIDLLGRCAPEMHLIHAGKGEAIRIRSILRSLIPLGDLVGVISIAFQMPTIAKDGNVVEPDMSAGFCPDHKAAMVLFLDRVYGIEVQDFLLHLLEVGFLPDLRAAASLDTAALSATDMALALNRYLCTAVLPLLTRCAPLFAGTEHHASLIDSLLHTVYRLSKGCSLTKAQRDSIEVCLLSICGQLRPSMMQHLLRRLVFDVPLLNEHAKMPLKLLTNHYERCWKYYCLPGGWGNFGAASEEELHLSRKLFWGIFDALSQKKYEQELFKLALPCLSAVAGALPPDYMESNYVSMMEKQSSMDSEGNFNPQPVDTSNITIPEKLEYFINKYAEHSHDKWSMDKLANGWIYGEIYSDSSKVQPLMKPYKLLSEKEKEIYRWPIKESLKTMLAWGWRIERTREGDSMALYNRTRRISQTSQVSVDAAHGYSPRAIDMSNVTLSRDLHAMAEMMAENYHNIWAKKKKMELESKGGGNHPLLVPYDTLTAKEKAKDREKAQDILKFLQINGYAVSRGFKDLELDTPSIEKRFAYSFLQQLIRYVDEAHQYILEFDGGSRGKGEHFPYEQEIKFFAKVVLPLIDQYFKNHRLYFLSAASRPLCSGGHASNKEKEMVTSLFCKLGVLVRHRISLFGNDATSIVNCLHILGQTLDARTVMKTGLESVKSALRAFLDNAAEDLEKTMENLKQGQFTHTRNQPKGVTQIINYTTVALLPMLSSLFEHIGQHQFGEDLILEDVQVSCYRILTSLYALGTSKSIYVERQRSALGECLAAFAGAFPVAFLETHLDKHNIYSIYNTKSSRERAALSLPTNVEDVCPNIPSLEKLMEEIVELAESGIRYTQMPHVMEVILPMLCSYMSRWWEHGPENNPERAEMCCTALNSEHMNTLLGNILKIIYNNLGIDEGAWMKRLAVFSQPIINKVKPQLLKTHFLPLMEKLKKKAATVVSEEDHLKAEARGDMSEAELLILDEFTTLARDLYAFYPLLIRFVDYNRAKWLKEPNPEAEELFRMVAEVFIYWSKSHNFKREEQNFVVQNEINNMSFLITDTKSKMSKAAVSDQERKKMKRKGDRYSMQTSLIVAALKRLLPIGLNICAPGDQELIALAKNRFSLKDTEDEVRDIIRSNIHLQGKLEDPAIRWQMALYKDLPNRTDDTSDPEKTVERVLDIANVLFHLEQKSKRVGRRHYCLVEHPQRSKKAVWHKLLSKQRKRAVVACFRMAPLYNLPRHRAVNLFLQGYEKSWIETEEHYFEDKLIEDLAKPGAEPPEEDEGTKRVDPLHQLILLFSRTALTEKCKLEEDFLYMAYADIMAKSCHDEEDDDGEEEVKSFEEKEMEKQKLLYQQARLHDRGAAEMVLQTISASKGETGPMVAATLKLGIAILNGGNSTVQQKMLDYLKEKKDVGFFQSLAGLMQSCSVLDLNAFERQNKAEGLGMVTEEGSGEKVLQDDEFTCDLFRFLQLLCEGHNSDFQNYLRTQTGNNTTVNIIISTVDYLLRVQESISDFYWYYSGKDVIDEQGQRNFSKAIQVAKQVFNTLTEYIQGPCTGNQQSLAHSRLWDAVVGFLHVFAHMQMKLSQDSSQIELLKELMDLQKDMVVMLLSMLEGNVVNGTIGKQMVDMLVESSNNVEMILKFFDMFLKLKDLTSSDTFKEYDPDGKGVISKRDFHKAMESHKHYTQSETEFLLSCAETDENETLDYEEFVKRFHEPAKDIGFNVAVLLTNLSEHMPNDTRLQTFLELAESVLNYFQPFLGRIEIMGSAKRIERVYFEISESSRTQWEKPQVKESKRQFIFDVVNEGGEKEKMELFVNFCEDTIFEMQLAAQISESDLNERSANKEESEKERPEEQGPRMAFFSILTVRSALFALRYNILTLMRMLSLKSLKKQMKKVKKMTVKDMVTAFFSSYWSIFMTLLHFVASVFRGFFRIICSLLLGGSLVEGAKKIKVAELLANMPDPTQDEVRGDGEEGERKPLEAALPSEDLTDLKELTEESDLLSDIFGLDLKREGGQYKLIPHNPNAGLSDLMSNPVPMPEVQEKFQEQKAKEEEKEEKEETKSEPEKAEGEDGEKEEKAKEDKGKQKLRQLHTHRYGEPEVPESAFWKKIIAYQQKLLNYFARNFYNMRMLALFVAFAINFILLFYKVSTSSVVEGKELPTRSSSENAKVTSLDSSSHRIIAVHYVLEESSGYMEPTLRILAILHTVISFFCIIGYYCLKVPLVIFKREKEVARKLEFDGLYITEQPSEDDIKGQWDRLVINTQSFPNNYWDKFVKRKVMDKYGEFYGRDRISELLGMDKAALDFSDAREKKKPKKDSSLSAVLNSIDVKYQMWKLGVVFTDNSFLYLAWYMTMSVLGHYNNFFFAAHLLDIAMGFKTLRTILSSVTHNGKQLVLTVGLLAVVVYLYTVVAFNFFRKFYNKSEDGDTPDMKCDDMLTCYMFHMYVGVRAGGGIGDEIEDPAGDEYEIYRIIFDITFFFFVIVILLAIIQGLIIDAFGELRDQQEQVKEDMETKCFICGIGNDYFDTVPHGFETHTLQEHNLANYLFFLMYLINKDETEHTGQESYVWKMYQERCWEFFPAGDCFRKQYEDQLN

By IC50 is commonly meant the concentration that gives 50% inhibition. High values mean weaker potency in that assay, low ones greater potency in that assay. Take `CCCCNc1ccc(C(=O)OCCN(CC)CC)c(OC)c1` [EL20]: inhibition was half-maximal at 82 nM (IC50).
